Results on 68 compounds are retold here after BindingDB's records for doi:10.1021/jm00105a058 (J. Uriach & Cía., 1991).

A short description of the first assay: Inhibitory activity expressed as the concentration required to inhibit platelet-activating factor (PAF) induced maximum aggregation by 50%.
Consider `CCCCCCCCCCCCCCCCOCC1OCC(COC(=O)N(Cc2cccc[n+]2CC)C(C)=O)O1` (stereo not given), for which 0.083 µM corresponded to half-maximal inhibition (IC50). On the same count and under the same terms, then `CCCCCCCCCCCCCCCCCCOCC1COC(COC(=O)NCc2cc[n+](CC)cc2)C1` (stereo not given), with 8 µM; and `CCCCCCCCCCCCCCCCCC1OCC(COCCCCCC[N+]2(C)CCOCC2)O1` (stereo not given), with 10 µM; and `CCCCCCCCCCCCCC1OCC(COC(=O)CCCCC[n+]2ccsc2)O1` (stereo not given), with 20 µM. On the same count and under the same terms, then `CCCCCCCCCCCCCCC1COC(COCCCCCC[n+]2ccsc2)C1` (stereo not given), with 2.1 µM.

`CCCCCCCCCCCCCCCCOCC1COC(COC(=O)N(Cc2cccc[n+]2CC)C(C)=O)C1` (stereo not given) came in with an IC50 of 0.018 µM. Same read-out and setting: in the case of `CCCCCCCCCCCCCCCCCC1OCC(COC(=O)CCCCC[n+]2ccsc2)O1` (stereo not given) it was 1.1 µM; in that of `CCCCCCCCCCCCCCOCC1COC(COCCCCCC[n+]2ccsc2)C1` (stereo not given), 1.4 µM. Turning to `CCCCCCCCCCCCCCCCCC1OCC(COP(=O)([O-])OCC[n+]2ccccc2)O1` (stereo not given), the IC50 was more than 100 µM.

For the compound `CCCCCCCCCCCCCCCCCCOCC1OCC(COC(=O)N(Cc2cccc[n+]2CC)C(C)=O)O1` (stereo not given), 0.14 µM corresponded to half-maximal inhibition (IC50). On the same count and under the same terms, in the case of `CCCCCCCCCCCCCCCCCC1OCC(COCCCCCC[n+]2ccccc2)O1` (stereo not given) it was 3 µM. On the same count and under the same terms, then `CCCCCCCCCCCCCCOCC1COC(COC(=O)N(Cc2cccc[n+]2CC)C(C)=O)C1` (stereo not given), with 0.085 µM; and `CCCCCCCCCCCCCCCCCCOCC1COC(COC(=O)CCCCC[n+]2ccsc2)C1` (stereo not given), with 9.2 µM; and `CCCCCCCCCCCCCCCCOCC1COC(COC(=O)CCCCC[n+]2ccsc2)C1` (stereo not given), with 3.6 µM.

In turn, `CCCCCCCCCCCCCCC1COC(COP(=O)([O-])OCC[n+]2ccccc2)C1` (stereo not given) displayed an IC50 of more than 100 µM.

Turning to `CCCCCCCCCCCCCCCCCCOCC1CC(COCCCCCCC[n+]2ccsc2)CO1` (stereo not given), the IC50 is 3.9 µM. Still for that read-out and setting: then `CCCCCCCCCCCCCCCCOCC1COC(COC(=O)NCCc2cccc[n+]2CC)C1` (stereo not given), with 2.8 µM.

As for `CCCCCCCCCCCCCCCC1CCC(COC(=O)CCCCC[n+]2ccsc2)O1` (stereo not given), the IC50 came to 3.1 µM. Regarding `CCCCCCCCCCCCCCC1COC(COP(=O)([O-])OCC[n+]2ccsc2)C1` (stereo not given), the IC50 was more than 100 µM. For `CCCCCCCCCCCCCCC1COC(COC(=O)CCCCC[n+]2ccsc2)C1` (stereo not given), the IC50 was more than 50 µM. For the compound `CCCCCCCCCCCCCCCCCC1OCC(COCCCCCCCC[n+]2ccsc2)O1` (stereo not given), it took 3.7 µM to reach half-maximal inhibition (IC50). Same read-out and setting: then `CCCCCCCCCCCCCCCCCCOCC1CC(COC(=O)CCCCC[n+]2ccsc2)CO1` (stereo not given), with 1.5 µM.

`CCCCCCCCCCCCCCCCCC1OCC(COCCCCCC[n+]2cccc3ccccc32)O1` (stereo not given) gave an IC50 of 2.7 µM. Consider `CCCCCCCCCCCCCCOCC1COC(COCCCCCCC[n+]2ccsc2)C1` (stereo not given), for which the IC50 was 1.7 µM. Still for that read-out and setting: in the case of `CCCCCCCCCCCCCCCCCCOCC1COC(COC(=O)N(Cc2cccc[n+]2CC)C(C)=O)O1` (stereo not given) it was 0.094 µM; in that of `CCCCCCCCCCCCCCCCOCC1OCC(COCCCCCC[n+]2ccsc2)O1` (stereo not given), 1.3 µM.

For the compound `CCCCCCCCCCCCCCCCOCC1COC(COC(=O)N(CCc2cccc[n+]2CC)C(C)=O)C1` (stereo not given), the IC50 amounted to 2.6 µM.

With `CCCCCCCCCCCCCCOCC1COC(COC(=O)N(Cc2cccc[n+]2CC)C(C)=O)O1` (stereo not given), the IC50 worked out at 0.11 µM. Compound `CCCCCCCCCCCCCCCC1CCC(COC(=O)N(Cc2cccc[n+]2CC)C(C)=O)O1` (stereo not given) yielded an IC50 of 0.08 µM. In turn, `CCCCCCCCCCCCCCCCCC1OCC(COCCCCCC[n+]2ccsc2)O1` (stereo not given) had an IC50 of 1.4 µM. For `CCCCCCCCCCCCCCCCCCOCC1COC(COC(=O)N(Cc2cc[n+](CC)cc2)C(C)=O)C1` (stereo not given), the concentration for half-maximal inhibition (IC50) is 1.6 µM.

`CCCCCCCCCCCCCCCCCC1CCC(COC(=O)N(Cc2cccc[n+]2CC)C(C)=O)O1` (stereo not given): inhibition was half-maximal at 0.071 µM (IC50). `CCCCCCCCCCCCCCC1COC(COC(=O)N(Cc2cccc[n+]2CC)C(C)=O)C1` (stereo not given) showed an IC50 of 0.14 µM.

Compound `CCCCCCCCCCCCCCC1COC(COP(=O)([O-])OCC[N+](C)(C)C)C1` (stereo not given) had an IC50 of more than 200 µM. `CCCCCCCCCCCCCCCC1CCC(COCCCCCC[n+]2ccsc2)O1` (stereo not given) came in with an IC50 of 1.3 µM. `CCCCCCCCCCCCCCCCCCOCC1COC(COC(=O)N(Cc2cccc[n+]2CC)C(C)=O)C1` (stereo not given) returned a half-inhibitory concentration (IC50) of 0.052 µM. The same measure, in the same setting: then `CCCCCCCCCCCCCCCCCC1OCC(COCCCCCC[n+]2cscc2C)O1` (stereo not given), with 3.1 µM. On the same count and under the same terms, then `CCCCCCCCCCCCCCCCOCC1OCC(COC(=O)CCCCC[n+]2ccsc2)O1` (stereo not given), with 4.9 µM; and `CCCCCCCCCCCCCCCCOCC1COC(COC(=O)NCc2cccc[n+]2CC)C1` (stereo not given), with 5.3 µM. Take `CCCCCCCCCCCCCCC1COC(COCCCCCCC[n+]2ccsc2)C1` (stereo not given): the 50% inhibitory concentration (IC50) stood at 0.83 µM. `CCCCCCCCCCCCCCCCCC1OCC(COCCCCCC[N+](C)(C)C)O1` (stereo not given) showed a half-maximal inhibitory concentration (IC50) of 2.4 µM. Same read-out and setting: then `CCCCCCCCCCCCCCC1COC(COCCCC[n+]2ccsc2)C1` (stereo not given), with 39 µM. Same read-out and setting: then `CCCCCCCCCCCCCCCCCC1OCC(COC(=O)N(Cc2cccc[n+]2CC)C(C)=O)O1` (stereo not given), with 0.21 µM. With `CCCCCCCCCCCCCCCCOCC1CC(COCCCCCC[n+]2ccsc2)CO1` (stereo not given), 1.4 µM corresponded to half-maximal inhibition (IC50). Turning to `CCCCCCCCCCCCCCCCOCC1OCC(COCCCC[n+]2ccsc2)O1` (stereo not given), the IC50 came to 1.2 µM.

`CCCCCCCCCCCCCCCCOCC1COC(COCCCCCC[n+]2ccsc2)C1` (stereo not given): the IC50 was 0.54 µM. Same read-out and setting: in the case of `CCCCCCCCCCCCCCCCOCC1CCC(COC(=O)N(Cc2cccc[n+]2CC)C(C)=O)O1` (stereo not given) it was 0.099 µM. The same measure, in the same setting: in the case of `CCCCCCCCCCCCCCCCCCOCC1COC(COC(=O)N(Cc2ccc[n+](CC)c2)C(C)=O)C1` (stereo not given) it was 2.5 µM; in that of `CCCCCCCCCCCCCCCCCC1OCC(COCCCC[n+]2ccsc2)O1` (stereo not given), 6 µM. Same read-out and setting: in the case of `CCCCCCCCCCCCCCCCC1COC(COCCCCCCC[n+]2ccsc2)C1` (stereo not given) it was 1.7 µM; in that of `CCCCCCCCCCCCCCCC1OCC(COC(=O)CCCCC[n+]2ccsc2)O1` (stereo not given), 3 µM; in that of `CCCCCCCCCCCCCCCCCC1OCC(COP(=O)([O-])OCC[N+](C)(C)C)O1` (stereo not given), more than 100 µM. In turn, `CCCCCCCCCCCCCCC1COC(COCCCCCCCC[n+]2ccsc2)C1` (stereo not given) displayed an IC50 of 1.1 µM. `CCCCCCCCCCCCCCCCOCC1COC(COC(=O)N(Cc2cccc[n+]2C)C(C)=O)C1` (stereo not given) showed an IC50 of 0.2 µM. On the same count and under the same terms, then `CCCCCCCCCCCCOCC1COC(COCCCCCCC[n+]2ccsc2)C1` (stereo not given), with 1.1 µM. On the same count and under the same terms, in the case of `CCCCCCCCCCCCCCCCOCC1COC(COC(=O)N(Cc2ccccn2)C(C)=O)C1` (stereo not given) it was 11 µM. Still for that read-out and setting: in the case of `CCCCCCCCCCCCCCCCOCC1COC(COC(=O)N(C(C)=O)c2ccc[n+](CC)c2)C1` (stereo not given) it was 2.3 µM; in that of `CCCCCCCCCCCCCCCCCC1COC(COC(=O)N(Cc2cccc[n+]2CC)C(C)=O)O1` (stereo not given), 0.024 µM. `CCCCCCCCCCCCCCCCOCC1COC(COC(=O)N(C(C)=O)c2cc[n+](CC)cc2)C1` (stereo not given) displayed an IC50 of 0.86 µM. As for `CCCCCCCCCCCCCCCCCCCC1OCC(COC(=O)CCCCC[n+]2ccsc2)O1` (stereo not given), the IC50 was 5.5 µM.

In the case of `CCCCCCCCCCCCCCC1COC(COCCCCCC[n+]2cccc3ccccc32)C1` (stereo not given), the midpoint of inhibition, the IC50, lay at 1.9 µM. `CCCCCCCCCCCCCCCCCCC1COC(COC(=O)N(Cc2cccc[n+]2CC)C(C)=O)C1` (stereo not given): the IC50 is 0.47 µM. The same measure, in the same setting: then `CCCCCCCCCCCCCCCCCCOCC1COC(COC(=O)N=c2ccn(CC)cc2)C1` (stereo not given), with 1.9 µM; and `CCCCCCCCCCCCCCCCCCOCC1CC(COCCCCC[n+]2ccsc2)CO1` (stereo not given), with 2.1 µM; and `CC1OCC(COC(=O)CCCCC[n+]2ccsc2)O1` (stereo not given), with 150 µM. With `CCCCCCCCCCCCCCC1COC(COCCCCCC[N+](C)(C)C)C1` (stereo not given), 8.2 µM corresponded to half-maximal inhibition (IC50). On the same count and under the same terms, in the case of `CCCCCCCCCCCCCCCCOCC1COC(COC(=O)N(Cc2cccc[n+]2CC)C(=O)OCC)C1` (stereo not given) it was 0.073 µM. For the compound `CCCCCCCCCCCCCCCCOCC1COC(COC(=O)N(Cc2cccc[n+]2CC)C(C)=O)O1` (stereo not given) [2-{[Acetyl-(4-hexadecyloxymethyl-[1,3]dioxolan-2-ylmethoxycarbonyl)-amino]-methyl}-1-ethyl-pyridinium; chloride], the IC50 worked out at 0.019 µM.

Experiment in a further assay: as above
This is another data set of the same source.
`CCCCCCCCCCCCCCCCOCC1COC(COC(=O)N(Cc2cccc[n+]2CC)C(C)=O)C1` (stereo not given): it took 0.0082 µM to reach half-maximal inhibition (IC50). Turning to `CCCCCCCCCCCCCCCCOCC1COC(COC(=O)N(Cc2cccc[n+]2CC)C(C)=O)O1` (stereo not given) [2-{[Acetyl-(4-hexadecyloxymethyl-[1,3]dioxolan-2-ylmethoxycarbonyl)-amino]-methyl}-1-ethyl-pyridinium; chloride], inhibition was half-maximal at 0.015 µM (IC50).
